Data as given in US20180265487A1, “SWEET TASTE MODULATORS” (Altria Client Services LLC, priority 2017, published 2018).

Test system: sweet taste perception
Test: time-intensity test of sweet taste (12 panelists, sample vs reference solution of 2 vol % sucrose, 1 vol % ethanol)
Format: in vivo, human
Settings: for concentration at which perceived intensity and duration of sweet taste perception are increased: in 2 vol % sucrose
From the text: The influence of the sweet taste modulators on the temporal perception of sweetness can be shown by means of time-intensity tests. For time-intensity tests, a reference solution containing 2 vol % sucrose and 1 vol % ethanol in water and sample solutions (i.e., concentration of stock aqueous solutions listed in Table 1 below) containing 2 vol % sucrose and 1 vol % ethanol and the test compound in different concentrations in water were rated on a horizontal, non-structured line scale from 0 (not detectable) to 10 (very strongly detectable). The reference solution served as a baseline for the time-intensity tests upon which the sample solutions were compared for the temporal perception of sweetness. Twelve panelists were asked to rinse their mouths with an aliquot (10 mL) of a solution and immediately start rating solution's sweet taste intensity for a period of 5 seconds. […] The rating results were the averages from the twelve panelists.
FIGS. 7A and 7B illustrate empirical (FIG. 7A) and predictive (FIG. 7B) model time-intensity experiments using the reference solution containing 2 vol % sucrose and 1 vol % ethanol in water and a sample solution containing 50 μM EMF, 2 vol % sucrose and 1 vol % ethanol in water. Time intensity tests enable continuous measurement of the intensity of taste impressions.
After calculating average time intensity (TI) curves using FIZZ biosystems calculations software and determining the TI curves integrated value (i.e., area under the curve), duration, and duration of the increasing and decreasing phase from individual TI curves, the trapezoidal method was applied after extraction of data points at 5% and 95% of the respective maximum intensity on the increasing and decreasing sections of the individual TI curves. The following parameters were extracted for further data analysis: maximum intensity (Imax) of taste perception experienced, total area under the curve (Atotal) 1 (i.e., total amount) of taste perception experienced and total duration (Dtotal) of taste perception experienced. Extracted parameters of sample solutions were normalized on the reference solution from the same evaluation session and a two-way analysis of variance (ANOVA) was conducted.
Table 2 below illustrates an overview of all p-values generated by two-way ANOVA of maximum intensity (Imax), total area under the curve (Atotal) land total duration (Dtotal) for sample solutions containing 5-ethyoxymethylfurfural (EMF), as well as ester of 5-hydroxymethylfurfural and vanillic acid (VanMF), 4-hydrozybenzaldehyde (pHBA), syringic aldehyde (SyA), and sinapic aldehyde (SinA), respectively. P-values (i.e., calculated probabilities) are statistical measures ranging from 0 to 1 which quantify the statistical significance of a data set. In other words, the p-value is a function of the observed sample results (a test statistic) relative to a statistical model, which measures how extreme the observation is. Smaller p-values are indicative of scaling significance. For example, p <0.05 are “significant” (*) (i.e., less than 1 in 20 chance, or 5%, of the data set being erroneous or inaccurate); p <0.01 are “highly significant” (**) (i.e., less than 1 in 100 chance, or 1%, of the data set being erroneous or inaccurate); and, p <0.001 are “very highly significant” (***) (less than 1 in 1000 chance, or 0.1%, of the data set being erroneous or inaccurate). Measured concentrations of EMF, VanMF, pHBA, SyA, and SinA in the sample solutions used in the statistical analysis are 10 μmol/L, 25 μmol/L, and 50 μmol/L, respectively. The p-values in Table 2 below relate to the statistical significance of the Imax, Atotal, and Dtotal values of sample solutions containing EMF, VanMF, pHBA, SyA, and SinA, respectively, in FIGS. 8-12.

Row | SMILES | increase of Atotal vs reference solution (significance) (10 μM) | increase of Dtotal vs reference solution (significance) (10 μM) | increase of Imax vs reference solution (significance) (10 μM) | increase of Atotal vs reference solution (significance) (25 μM) | increase of Dtotal vs reference solution (significance) (25 μM) | increase of Imax vs reference solution (significance) (25 μM) | increase of Atotal vs reference solution (significance) (50 μM) | increase of Dtotal vs reference solution (significance) (50 μM) | increase of Imax vs reference solution (significance) (50 μM) | total area under the curve (Atotal) compared with reference solution (50 μM in 2 vol % sucrose, 1 vol % ethanol) | maximum intensity (Imax) of sweet taste perception on the intensity scale (50 μM in 2 vol % sucrose, 1 vol % ethanol, scale 0 to 10, reference solution about 3.5) | concentration at which perceived intensity and duration of sweet taste perception are increased (1 vol % ethanol)
1 | CCOCc1ccc(C=O)o1 [EMF, 5-ethoxymethyl-2-furaldehyde] | no significant increases | no significant increases | no significant increases | no significant increases | no significant increases | very highly significant increase | *** (p <0.001 are “very highly significant” (***)) | *** (p <0.001 are “very highly significant” (***)) | *** (p <0.001 are “very highly significant” (***)) | greater than Atotal for the reference solution | ~5 | at least 50 μM
2 | COc1cc(/C=C/C=O)cc(OC)c1O [SinA, sinapic aldehyde] | significant increases | no significant increase | significant increases | significant increases | significant increases | significant increases | significant increases | significant increases | significant increases | – | – | –
3 | COc1cc(C=O)cc(OC)c1O [SyA, syringic aldehyde] | do not have a significant influence | do not have a significant influence | do not have a significant influence | *** (p <0.001 are “very highly significant” (***)) | * (p <0.05 are “significant” (*)) | ** (p <0.01 are “highly significant” (**)) | ** (p <0.01 are “highly significant” (**)) | – | ** (p <0.01 are “highly significant” (**)) | – | – | –
4 | COc1cc(C(=O)OCc2ccc(C=O)o2)ccc1O [VanMF, ester of 5-hydroxymethylfurfural and vanillic acid] | ** (p <0.01 are “highly significant” (**)) | ** (p <0.01 are “highly significant” (**)) | ** (p <0.01 are “highly significant” (**)) | * (p <0.05 are “significant” (*)) | * (p <0.05 are “significant” (*)) | ** (p <0.01 are “highly significant” (**)) | no significant increases | * (p <0.05 are “significant” (*)) | no significant increases | – | – | –
5 | O=Cc1ccc(O)cc1 [pHBA, 4-hydrozybenzaldehyde] | No significant increases | No significant increases | No significant increases | ** (p <0.01 are “highly significant” (**)) | – | *** (p <0.001 are “very highly significant” (***)) | ** (p <0.01 are “highly significant” (**)) | ** (p <0.01 are “highly significant” (**)) | ** (p <0.01 are “highly significant” (**)) | – | – | 50 µM
